Measurements taken from US8722088B2, “Pharmaceutical compositions and methods for the treatment of prostate cancer” (Ferring International Center S.A., priority 2009, dated 2014).
Entries after “also recorded” stand apart in the source; their conditions may differ. Where a SMILES comes first, the peptide text is derived from it. [ ]: non-standard residue; d: D form. The star is where a group is joined. dPhe(4-NHCONH2) = NC(=O)Nc1ccc(C[C@@H](N)C(=O)O)cc1; Dihydroorotyl(S) = O=C1C[C@@H](C(=O)*)NC(=O)N1; dPhe(4-Cl) = N[C@H](Cc1ccc(Cl)cc1)C(=O)O; Phe(4-NH2) = Nc1ccc(C[C@H](N)C(=O)O)cc1; d2Nal = N[C@H](Cc1ccc2ccccc2c1)C(=O)O; Lys(iPr) = CC(C)NCCCC[C@H](N)C(=O)O; d3Pal = N[C@H](Cc1cccnc1)C(=O)O

Experiments:
clinical = settings: human, in vivo, 240 mg
Method: A three-month dosing regimen Phase 2 study investigated three different dosing regimens. After a starting dose of […] (with a concentration of 40 mg/mL of solvent), a further dose (i.e., maintenance dose) of 240 mg was given on Day 28, and then at Months 3, 6, and 9 or at Months 4, 7, and 10. Maintenance doses of 240 mg were evaluated initially at concentrations of 40 mg/mL and 60 mg/mL in this study, based on the observed results by different PK profiles of different concentrations. The patients were randomized in parallel to one of three different three-month maintenance dosing regimens of degarelix:
Thus, patients with lower degarelix plasma levels were more likely to have a testosterone level>0.5 ng/mL during the one year treatment period. […] This is consistent with the observation that for most patients, the time of first occurrence of a testosterone level>0.5 ng/mL was three months after a previous dose, at the time of trough degarelix plasma levels. The median trough degarelix plasma levels in the study ranged from about 6.5-7.5 ng/mL.

serum testosterone = test: One-month dosing regimen clinical program: testosterone suppression to castrate level; format: in vivo, human; settings: for testosterone response rate: Day 28 to Day 364
Method: Other studies establish that degarelix or pharmaceutically acceptable salt thereof at a dose of 240 mg (40 mg/mL) is an effective starting dose. […] With dosing at 0 months and an additional dosage at 1 month, it is believed that a steady state level is reached faster and this is (together with formulation, dose and concentration) a factor for consideration to obtain and maintain therapeutic levels in the patient. Use of a higher dose as the starting dose to have a ‘true’ 3 month depot is not feasible because of the combined requirements of a sufficient starting/loading phase release to allow buildup of degarelix plasma concentration; and at the same time sufficient long term release to achieve sufficiently high steady state concentration for 3 months. […] This is surprising given the high doses (and concentrations) of degarelix in the defined maintenance dose(s).

PSA = test: Clinical trial CS18: PSA change from baseline; format: in vivo, human
Method: PSA is a commonly used marker in the diagnosis of prostate cancer and has more recently also been used to monitor response to treatment as well as disease recurrence and progression (Fleming et al. (2006) Nat. Clin. Pract. Oncol. 3: 658-68; Lilja, et al. (2008) Nat. Rev. Cancer 8: 268-78). In general, higher levels of PSA are associated with more severe forms of prostate cancer, with metastatic stage prostate cancer being associated with the highest level of PSA (e.g., >50 ng/mL). Accordingly, rising PSA levels in patients undergoing prostate cancer treatment are associated with incomplete or failed efficacy of the treatment. Here, there were further reductions in PSA after Month 1 and the median reductions were sustained throughout the study period (median reductions of 96-97%).

[1] = human, in vivo, 80 mg

- level at 1 year (clinical): ~7 ng/mL
- level at 3 months after a previous dose (clinical): 6.5 to 7.5 ng/mL
- mean trough levels of degarelix [1]: approximately 12 ng/mL
SMILES: CC(=O)N[C@H](Cc1ccc2ccccc2c1)C(=O)N[C@H](Cc1ccc(Cl)cc1)C(=O)N[C@H](Cc1cccnc1)C(=O)N[C@@H](CO)C(=O)N[C@@H](Cc1ccc(NC(=O)[C@@H]2CC(=O)NC(=O)N2)cc1)C(=O)N[C@H](Cc1ccc(NC(N)=O)cc1)C(=O)N[C@@H](CC(C)C)C(=O)N[C@@H](CCCCNC(C)C)C(=O)N1CCC[C@H]1C(=O)N[C@H](C)C(N)=O [Degarelix, D-Alaninamide, N-acetyl-3-(2-naphthalenyl)-D-alanyl-4-chloro-D-phenylalanyl-3-(3-pyridinyl)-D-alanyl-L-seryl-4-[[[(4S)-hexahydro-2,6-dioxo-4-pyrimidinyl]carbonyl]amino]-L-phenylalanyl-4-[(aminocarbonyl)amino]-D-phenylalanyl-L leucyl-N6-(1-methylethyl)-L-lysyl-L-prolyl] (Ac-[d2Nal][dPhe(4-Cl)][d3Pal]S[Phe(4-NH2)](Dihydroorotyl(S))[dPhe(4-NHCONH2)]L[Lys(iPr)]P[dA]-NH2)
- sustained testosterone suppression for 3 months following an injection (serum testosterone; doses of 240 mg, 160 mg or 80 mg): failed to sustain testosterone suppression for 3 months; also recorded: none of the doses tested in the one-month dosing regimen program could sustain testosterone suppression for 3 months
- testosterone response rate (serum testosterone; monthly maintenance 80 mg (20 mg/mL)): 98%
- testosterone response rate (serum testosterone; monthly maintenance 160 mg (40 mg/mL)): 100%
- patients with testosterone suppressed to castrate level (T≦0.5 ng/mL) (serum testosterone; starting dose 240 mg (40 mg/mL), first 28 days): 95%
- PSA, Median % Change from Baseline (PSA; 360/60 mg, Day 28): −83.8%
- PSA, Median % Change from Baseline (PSA; 360/60 mg, Day 56): −93.8%
- PSA, Median % Change from Baseline (PSA; 360/60 mg, Day 84): −95.0%
- PSA, Median % Change from Baseline (PSA; 360/60 mg, Day 112): −95.5%
- PSA, Median % Change from Baseline (PSA; 360/60 mg, Day 140): −96.2%
- PSA, Median % Change from Baseline (PSA; 360/60 mg, Day 168): −96.8%
- PSA, Median % Change from Baseline (PSA; 360/60 mg, Day 196): −95.9%
- PSA, Median % Change from Baseline (PSA; 360/60 mg, Day 224): −96.4%
- PSA, Median % Change from Baseline (PSA; 360/60 mg, Day 252): −97.0%
- PSA, Median % Change from Baseline (PSA; 360/60 mg, Day 280): −97.0%
- PSA, Median % Change from Baseline (PSA; 360/60 mg, Day 308): −97.3%
- PSA, Median % Change from Baseline (PSA; 360/60 mg, Day 336): −97.5%
- PSA, Median % Change from Baseline (PSA; 360/60 mg, Day 364): −96.9%
- PSA, Median % Change from Baseline (PSA; 360/60 mg, Last visit): −96.9%
- PSA, Median % Change from Baseline (PSA; 480/60 mg, Day 28): −78.9%
- PSA, Median % Change from Baseline (PSA; 480/60 mg, Day 56): −90.9%
- PSA, Median % Change from Baseline (PSA; 480/60 mg, Day 84): −93.4%
- PSA, Median % Change from Baseline (PSA; 480/60 mg, Day 112): −95.3%
- PSA, Median % Change from Baseline (PSA; 480/60 mg, Day 140): −95.5%
- PSA, Median % Change from Baseline (PSA; 480/60 mg, Day 168): −96.5%
- PSA, Median % Change from Baseline (PSA; 480/60 mg, Day 196): −96.2%
- PSA, Median % Change from Baseline (PSA; 480/60 mg, Day 224): −96.6%
- PSA, Median % Change from Baseline (PSA; 480/60 mg, Day 252): −96.9%
- PSA, Median % Change from Baseline (PSA; 480/60 mg, Day 280): −96.5%
- PSA, Median % Change from Baseline (PSA; 480/60 mg, Day 308): −97.0%
- PSA, Median % Change from Baseline (PSA; 480/60 mg, Day 336): −97.4%
- PSA, Median % Change from Baseline (PSA; 480/60 mg, Day 364): −97.1%
- PSA, Median % Change from Baseline (PSA; 480/60 mg, Last visit): −96.5%
- median reductions in PSA sustained throughout the study period (PSA; CS18, after Month 1): 96-97%
- PSA, Median % Change from Baseline (PSA; Total (both arms), Day 28): −81.2%
- PSA, Median % Change from Baseline (PSA; Total (both arms), Day 56): −92.9%
- PSA, Median % Change from Baseline (PSA; Total (both arms), Day 84): −94.5%
- PSA, Median % Change from Baseline (PSA; Total (both arms), Day 112): −95.4%
- PSA, Median % Change from Baseline (PSA; Total (both arms), Day 140): −95.9%
- PSA, Median % Change from Baseline (PSA; Total (both arms), Day 168): −96.6%
- PSA, Median % Change from Baseline (PSA; Total (both arms), Day 196): −96.2%
- PSA, Median % Change from Baseline (PSA; Total (both arms), Day 224): −96.5%
- PSA, Median % Change from Baseline (PSA; Total (both arms), Day 252): −96.9%
- PSA, Median % Change from Baseline (PSA; Total (both arms), Day 280): −97.0%
- PSA, Median % Change from Baseline (PSA; Total (both arms), Day 308): −97.2%
- PSA, Median % Change from Baseline (PSA; Total (both arms), Day 336): −97.4%
- PSA, Median % Change from Baseline (PSA; Total (both arms), Day 364): −96.9%
- PSA, Median % Change from Baseline (PSA; Total (both arms), Last visit): −96.8%
